Data from ChEMBL document CHEMBL1914281, “Discovery of novel pyridyl carboxamides as potent CCR5 antagonists and optimization of their pharmacokinetic profile in rats” (Bioorg Med Chem Lett, 2011).

Experiments:
[1] = system: Human immunodeficiency virus 1; test: Antiviral activity against Human immunodeficiency virus 1 Ba-L by in human HOS cells assessed as inhibition of viarl entry by luciferase reporter gene assay; format: functional, organism-based
[2] = system: Human immunodeficiency virus 1; test: Antiviral activity against Human immunodeficiency virus 1 Ba-L in human PBL cells assessed as inhibition of viral replication; format: functional, organism-based
[3] = Metabolic stability of the compound in Sprague-Dawley rat plasma assessed as compound remaining at 1 mg/kg after 5 mins; format: ADME, organism-based; parameters: dose 1 mg/kg; conditions: read-out: Stability
[4] = Metabolic stability of the compound in Sprague-Dawley rat plasma assessed as compound remaining at 1 mg/kg after 10 mins; format: ADME, organism-based; parameters: dose 1 mg/kg; conditions: read-out: Stability
[5] = Metabolic stability of the compound in Sprague-Dawley rat plasma assessed as compound remaining at 1 mg/kg after 20 mins; format: ADME, organism-based; parameters: dose 1 mg/kg; conditions: read-out: Stability
[6] = Metabolic stability of the compound in Sprague-Dawley rat plasma assessed as compound remaining at 1 mg/kg after 30 mins; format: ADME, organism-based; parameters: dose 1 mg/kg; conditions: read-out: Stability
[7] = (§1) Metabolic stability of the compound in Sprague-Dawley rat plasma assessed as compound remaining at 1 mg/kg after 45 mins; format: ADME, organism-based; parameters: dose 1 mg/kg; conditions: Sprague-Dawley, plasma, read-out: Stability
[8] = (§2) Metabolic stability of the compound in Sprague-Dawley rat plasma assessed as compound remaining at 1 mg/kg after 60 mins; format: ADME, organism-based; parameters: dose 1 mg/kg; conditions: Sprague-Dawley, plasma, read-out: Stability
Plasma [9] = test: Stability of the compound in Sprague-Dawley rat plasma; format: ADME, cell-free
[10] = Half life in Sprague-Dawley rat plasma at 1 mg/kg; format: ADME, organism-based; parameters: dose 1 mg/kg
[11] = Clearance in Sprague-Dawley rat plasma at 1 mg/kg; format: ADME, organism-based; parameters: dose 1 mg/kg
[12] = Oral bioavailability in Sprague-Dawley rat plasma at 1 mg/kg; format: ADME, organism-based
Plasma [13] = test: as §1; format: ADME, organism-based; parameters: dose 1 mg/kg; conditions: in vivo, 0.75 h
Plasma [14] = test: as §2; format: ADME, organism-based; parameters: dose 1 mg/kg; conditions: in vivo, 1 h
HOS = test: Cytotoxicity in human HOS cells assessed as cell death up to 1 uM; format: cell-based
PBL = test: Cytotoxicity in human PBL cells assessed as cell death up to 1 uM; format: cell-based

## Cc1nc(Oc2ccc(NS(C)(=O)=O)cc2)ccc1CN1CCC(N(C(=O)Nc2cnc(C(N)=O)c(F)c2)c2cccc(F)c2)CC1
[1]
  IC50: 1.2 nM
[2]
  IC50: 1.1 nM
[3]
  remaining at 5 min: 86%
[4]
  remaining at 10 min: 71%
[5]
  remaining at 20 min: 42%
[6]
  remaining at 0.5 h: 26%
[7]
  remaining at 0.75 h: 12%
[8]
  remaining at 1 h: 4%
Plasma [9]
  Stability: Unstable

## Cc1nc(Oc2ccc(NS(C)(=O)=O)cc2)ccc1CN1CCC(N(C(=O)Nc2cc(F)c(C(N)=O)cc2F)c2cccc(F)c2)CC1
[10]
  half-life: 3.9 h
[11]
  clearance: 0.9 L/h/kg
[12]
  bioavailability: 53%

## Cc1nc(Oc2ccc(NS(C)(=O)=O)cc2)ccc1CN1CCC(N(C(=O)Nc2ccc(C(N)=O)nc2C)c2cccc(F)c2)CC1
[1]
  IC50: 3.6 nM
[2]
  IC50: 3.9 nM
[3]
  remaining at 5 min: 94%
[4]
  remaining at 10 min: 91%
[5]
  remaining at 20 min: 95%
[6]
  remaining at 0.5 h: 84%
[7]
  remaining at 0.75 h: 74%
[8]
  remaining at 1 h: 71%
[10]
  half-life: 2.8 h
[11]
  clearance: 0.702 L/h/kg
[12]
  bioavailability: 49%

## Cc1cc(NC(=O)N(c2cccc(F)c2)C2CCN(Cc3ccc(Oc4ccc(NS(C)(=O)=O)cc4)nc3C)CC2)cnc1C(N)=O
[1]
  IC50: 1.9 nM
[2]
  IC50: 5.3 nM
[3]
  remaining at 5 min: 90%
[4]
  remaining at 10 min: 88%
[5]
  remaining at 20 min: 94%
[6]
  remaining at 0.5 h: 120%
Plasma [13]
  Stability: 123%
Plasma [14]
  Stability: 134%
[10]
  half-life: 2 h
[11]
  clearance: 2.22 L/h/kg
[12]
  bioavailability: 30%

## CS(=O)(=O)Nc1ccc(Oc2ccc(CN3CCC(N(C(=O)Nc4ccc(C(N)=O)nc4)c4ccccc4)CC3)c(C3CC3)n2)cc1
HOS
  Activity: Non-toxic
PBL
  Activity: Non-toxic
[1]
  IC50: 1 nM
[2]
  IC50: 2.2 nM

## Cc1nc(Oc2ccc(NS(C)(=O)=O)cc2F)ccc1CN1CCC(N(C(=O)Nc2ccc(C(N)=O)nc2)c2cccc(F)c2)CC1
HOS
  Activity: Non-toxic
PBL
  Activity: Non-toxic
[1]
  IC50: 1.2 nM
[2]
  IC50: 0.5 nM

## Cc1cc(NS(C)(=O)=O)ccc1Oc1ccc(CN2CCC(N(C(=O)Nc3ccc(C(N)=O)nc3)c3cccc(F)c3)CC2)c(C)n1
HOS
  Activity: Non-toxic
PBL
  Activity: Non-toxic
[1]
  IC50: 1 nM
[2]
  IC50: 0.6 nM

## Cc1nc(Oc2ccc(NS(C)(=O)=O)cc2Cl)ccc1CN1CCC(N(C(=O)Nc2ccc(C(N)=O)nc2)c2cccc(F)c2)CC1
HOS
  Activity: Non-toxic
PBL
  Activity: Non-toxic
[1]
  IC50: 1.2 nM
[2]
  IC50: 1.1 nM

## CS(=O)(=O)Nc1ccc(Oc2ccc(CN3CCC(N(C(=O)Nc4ccc(C(N)=O)nc4)c4ccccc4)CC3)cn2)cc1
[1]
  IC50: 10 nM

## Cc1nc(Oc2ccc(NS(C)(=O)=O)cc2)ccc1CN1CCC(N(C(=O)Nc2ccc(C(N)=O)nc2)c2cccc(F)c2)CC1
HOS
  Activity: Non-toxic
PBL
  Activity: Non-toxic
[1]
  IC50: 1 nM
[2]
  IC50: 0.8 nM
[3]
  remaining at 5 min: 85%
[4]
  remaining at 10 min: 67%
[5]
  remaining at 20 min: 44%
[6]
  remaining at 0.5 h: 25%
[7]
  remaining at 0.75 h: 11%
[8]
  remaining at 1 h: 3%

## CS(=O)(=O)Nc1ccc(Oc2ccc(CN3CCC(N(C(=O)Nc4ccc(C#N)nc4)c4ccccc4)CC3)cn2)cc1
[1]
  IC50: 44 nM

## Cc1nc(Oc2ccc(NS(C)(=O)=O)cc2)ncc1CN1CCC(N(C(=O)Nc2ccc(C(N)=O)nc2)c2cccc(F)c2)CC1
HOS
  Activity: Non-toxic
PBL
  Activity: Non-toxic
[1]
  IC50: 2.4 nM
[2]
  IC50: 0.9 nM
